# Reference: patent publication US7109317B1, “FK506-based regulation of biological events” (President and Fellows of Harvard College, priority 1998, dated 2006)
# pEC50: −log10 of the molar value.
# Columns and labels:
# [1] = system: endogenous calcineurin (NFAT-SEAP reporter, human TAg Jurkat T cells); experiment: NFAT-SEAP reporter assay (calcineurin inhibition assay), PMA + ionomycin stimulated human TAg Jurkat T cells; type: cell-based; details: for inhibition of NFAT-SEAP activity: PMA/ionomycin-induced reporter activity
# Description: A similar strategy can be used to identify bump-hole pairs for the CAB domain.
# Each of the residues in question is part of the CAB minimal binding domain structure. […] These mutations may be inserted randomly or in a directed fashion, as described above for FKBP.
# (§1) In particular, we transfected human TAg Jurkat T cells with a reporter construct, NFAT-SEAP, which consists of 12 copies of the NFAT response element fused upstream of the gene for secreted alkaline phosphatase (SEAP). Following transfection, the cells were exposed to phorbol myristate acetate (PMA) and ionomycin (IO), which together are able to activate NFAT-SEAP reporter activity. […] Specifically, ten million Jurkat cells per condition were transfected with 500 ng of NFAT-SEAP reporter construct by electroporation (40 ms pulse) and aliquoted at 0.3×10^6/well into a 96-well microtiter plate. […] Cells were incubated 36 hours in a tissue culture incubator, then heat-inactivated for 2 hours at 65° C. Following heating, 100 μL of cell supernatants were transferred to a replica plate containing 100 μL of assay buffer (120 μM 4-methylumbelliferyl phosphate in 2M diethanolamine bicarbonate, pH 10). Assays were incubated 8 hours before reading on a Fluoroskan plate reader.
# [2] = system: fCAB, CnA (12–394) fused to CnB (3–170), human calcineurin A (SEQ ID NO: 33) and calcineurin B (SEQ ID NO: 35); experiment: NFAT-SEAP reporter assay with overexpressed full length CAB (fCAB); type: cell-based; details: 500–5000 ng fCAB construct DNA, 500 ng NFAT-SEAP
# Experimental: Primers containing restriction sites were prepared in order to amplify two different fragments of calcineurin A, corresponding the full-length CAB (fCAB) and the minimal CAB (mCAB). These PCR fragments were subcloned directionally into the polylinker to generate the following constructs: ATG-XhoI-CnA (12–394)-SalI-SpeI-TAA-EcoRI ATG-XhoI-CnA (340–394)-SalI-SpeI-TAA-EcoRI Primers containing restriction sites were prepared in order to amplify the fragment of calcineurin B corresponding to residues 3–170 of this protein. […] This fusion results in another (SalI/XhoI) fusion which cannot be cut by either enzyme. A similar strategy is possible to generate multimers of the CAB domain, greatly facilitating the production of these reagents. Since all of the restriction enzymes within the coding region are 6-base cutters, they preserve the reading frame for protein synthesis. The mature CAB should have the following amino acid sequence: NH2-Met-Leu-Glu-(CnA frag)-Val-Glu-(CnB frag)-Val-Asp-Thr-Ser-COOH • (SEQ ID NO 22) New mCAB-p65 constructs were verified by sequence analysis.
# In particular, we transfected human TAg Jurkat T cells with a reporter construct, NFAT-SEAP, which consists of 12 copies of the NFAT response element fused upstream of the gene for secreted alkaline phosphatase (SEAP). […] Assays were incubated 8 hours before reading on a Fluoroskan plate reader. […]
# [3] = system: full length CABs (residues 12–394 of human calcineurin A, SEQ ID NO: 33, fused to residue 2 or residue 3 of calcineurin B, SEQ ID NO: 35) fused to VP16 or …; experiment: SEAP transcription activation assay, full length CABs fused to VP16 or GAL4; type: cell-based; details: FK506 titration, Jurkat T-cells
# Description: The summary of our data in this transcription assay is as follows. The full length CABS (residues 12–394 of calcineurin A fused to residue 2 or to residue 3 of Calcinuerin B) are functional when fused to VP16 or to GAL4. They have an EC50 of ˜1 nanoMolar.
# [4] = system: 2 tandem minicabs (340–394 of CNA and 3–170 of CNB) fused to VP16, with Gal4 fused to 3 FKBPs; experiment: SEAP transcription activation assay, 2 tandem minicabs fused to VP16; details: FK506, SEAP
# Experimental: (§2) 10 million T-antigen transformed Jurkat T-cells growing in log phase at 37 degrees with 5% CO2 in RPMI medium supplemented with 10% FBS, Penicillin and Streptomycin, and Glutamate are centrifuged for 5 minutes at 1000×g. This pellet is washed with RPMI without phenol-red and re-pelleted by centrifugation at 1000×g for 5 minutes. 200 microliters of phenol-free RPMI are used to resuspend each 10 million cells. 200 microliters of these cells are then incubated for 10 minutes at room temperature with 1 microgram of the UAS-SEAP reporter, 1 microgram of the DNA binding domain containing construct, and 5 micrograms of the activation domain containing construct. Electroporation is performed at […], 129 Ohms on a BTX electroporator. The cells are allowed to recover at room temperature for another 10 minutes. They are then resuspended in 10 mLs of RPMI w/o phenol red supplemented with 10% FBS, penicillin, streptomycin, and Glutamate and returned to the 37 degree incubator with 5% CO2 for 24 hrs.
# (§3) After recovery, the cells are pelleted by centrifugation at 1000×g for 5 minutes and resuspended in 5 mLs of RPMI w/o phenol red supplemented with 10% FBS, penicillin, streptomycin, and Glutamate. 100 microliters of this cell suspension is plated on a 96 well plate. […]
# [5] = system: 340miniCAB-VE constructs (CNA residues 340–394 fused to CNBMG or CNBM, VP16), with FKBP3-GE; experiment: SEAP assay, 340miniCAB-VE with FKBP3-GE; type: cell-based, human
# Experimental: as §2
# After recovery, the cells are pelleted by centrifugation at 1000×g for 5 minutes and resuspended in 5 mLs of RPMI w/o phenol red supplemented with 10% FBS, penicillin, streptomycin, and Glutamate. 100 microliters of this cell suspension is plated on a 96 well plate. Appropriate dilutions of the dimerizer from an ethanolic solution (2 micromolar to 0.2 nanomolar) are made in the same media that the cells were resuspended in such that the concentration of ethanol is less than 1%.
# [6] = system: 350miniCABs (CNA residues 350–394 fused to CNBMG or CNBM, VP16), with FKBP3-GE; experiment: SEAP assay, 350miniCAB-VE with FKBP3-GE; type: cell-based, human; details: FK506, with FKBP3-GE
# Description: Four such minimal CAB proteins were created by PCR and ligation. Two of the miniCABs contained CNA residues 340–394 fused to either CNBMG or CNBM(340miniCABs). The other two miniCABs contained CNA residues 350–394 fused to either CNBMG or CNBM(350miniCABs). Each of these miniCABs was also fused to the VP16 transactivation domain.
# Consistent with the relative activity of CNBMG and CNBM, 340miniCABMG-VE was able to induce higher SEAP activity than 340miniCABM-VE.
# [7] = system: (340miniCABMG)2-VE, two 340miniCAB domains in series fused to VP16, with FKBP3-GE; experiment: SEAP assay, two 340miniCAB domains in series (VE) with FKBP3-GE; type: cell-based, human; details: FK506, with FKBP3-GE
# Experimental: as §2, §3
# [8] = system: (340miniCABMG)3-VE, three 340miniCABs in series fused to VP16, with FKBP3-GE; experiment: SEAP assay, three 340miniCAB domains in series (VE) with FKBP3-GE; type: cell-based, human; details: FK506, with FKBP3-GE
# Experimental: as §2, §3
# [9] = system: full length CABMG-GE (CNA residues 12–394 fused to CNBMG, GAL4), with FKBP3-VE; experiment: SEAP assay, full length CABMG-GE with FKBP3-VE
# Experimental: as §2, §3
# mink lung cells (FKBP) = experiment: rapamycin-dependent effect in mink lung cells, suppression by FK506 derivatives; type: cell-based
# Description: To rule out these other possibilities, we tested two of the derivatives for their ability to suppress a rapamycin-dependent effect in mink lung cells (Paul A Clemons and Brent Stockwell, unpublished observations).
# calcineurin = experiment: NFAT-SEAP reporter gene assay (calcineurin inhibition assay), PMA/ionomycin-stimulated; type: cell-based, human; details: dose-dependent suppression of PMA/ionomycin-induced activation of NFAT-SEAP reporter, transient transfection
# Experimental: as §1
# mink lung cells = experiment: Suppression of a rapamycin-dependent effect in mink lung cells; type: cell-based; details: unpublished observations
# Description: Other possibilities for the reduced activity of derivatives in this assay are 1) compound insolubility in tissue culture media, 2) inability of compound to penetrate the cell membrane, or 3) inability of compound to bind to FKBP. To rule out these other possibilities, we tested two of the derivatives for their ability to suppress a rapamycin-dependent effect in mink lung cells (Paul A Clemons and Brent Stockwell, unpublished observations).
SMILES,inhibition of NFAT-SEAP activity [1],inhibition of reporter gene activity at high level of fCAB overexpression [2],pEC50 [3],total activation [4] [fold],"stimulation of SEAP activity ([5]; FK506-dependent, with FKBP3-GE)","pEC50 ([5]; miniCABs, FK506, SEAP)",EC50 of the miniCABs compared with full length CABMG-VE ([5]; relative to full length CABMG-VE),stimulation of SEAP activity [6],pEC50 [7],pEC50 [8],"enhancement of SEAP activity ([9]; FK506, with FKBP3-VE) [fold]","stimulation of SEAP activity in the absence of FK506 ([9]; full CAB-GE and CAB-VE, no FK506)",suppression of rapamycin-dependent effect (mink lung cells (FKBP)),fold less immunosuppressive than FK506 (calcineurin),ability to suppress the effects of rapamycin (mink lung cells),"immunosuppressive activity relative to FK506 (dose-dependent suppression of PMA/ionomycin-induced NFAT-SEAP activation) ([1]; fold less immunosuppressive than FK506, transient transfection)"
C=CC[C@@H]1/C=C(\C)C[C@H](C)C[C@H](OC)[C@H]2O[C@@](O)(C(=O)C(=O)N3CCCC[C@H]3C(=O)O[C@H](/C(C)=C/[C@@H]3CC[C@@H](O)[C@H](OC)C3)[C@H](C)[C@@H](O)CC1=O)[C@H](C)C[C@@H]2OC [FK506],antagonizes the effect of PMA+IO in a dose-dependent manner,a high level of fCAB overexpression overcame the ability of FK506 or its derivatives to inhibit reporter gene activity,~9.00,~20,able to stimulate SEAP activity,~8.52,an order of magnitude greater than for full length CABMG-VE,neither of the 350miniCABs were able to stimulate SEAP activity,~8.89,~8.89,2.0,do not stimulate activity in the absence of FK506,–,–,–,–
CO[C@H]1C[C@@H](C)C/C(C)=C/[C@@H](CC=Cc2ccc(Oc3ccccc3)cc2)C(=O)C[C@H](O)[C@@H](C)[C@@H](/C(C)=C/[C@@H]2CC[C@@H](O)[C@H](OC)C2)OC(=O)[C@@H]2CCCCN2C(=O)C(=O)[C@]2(O)O[C@H]1[C@@H](OC)C[C@H]2C [C40-p-phenoxyphenyl-FK506],–,–,–,–,–,–,–,–,–,–,–,–,able to suppress the effects of rapamycin,–,–,–
CO[C@H]1C[C@@H](C)C/C(C)=C/[C@@H](CC=Cc2ccccc2)C(=O)C[C@H](O)[C@@H](C)[C@@H](/C(C)=C/[C@@H]2CC[C@@H](O)[C@H](OC)C2)OC(=O)[C@@H]2CCCCN2C(=O)C(=O)[C@]2(O)O[C@H]1[C@@H](OC)C[C@H]2C [C40-phenyl-FK506],inability of C40-phenyl-FK506 to inhibit NFAT-SEAP activity,–,–,–,–,–,–,–,–,–,–,–,able to suppress the effects of rapamycin,at least 30 fold,able to suppress the effects of rapamycin,at least 30 fold
